Assay results: patent publication US5696153A, “Therapeutic regimen for treating patients” (priority 1996, dated 1997)
Entries after “also recorded” stand apart in the source; their conditions may differ. Read-outs that look alike come from different tables or passages of the source.

Legend:
[1] = cited from earlier work
SK-N-AS cells = assay: Sensitivity to a second dose of taxol at different times after a first dose (FIG. 1); format: cell-based, human
[2] = 40 mg/kg single IP
Excerpt: (§1) Five nude mice were maintained in each cage with a fiberglass bonnet in a clean isolation room. All cages and food were sterilized prior to use. Female nude mice were inoculated subcutaneously with 3×10^6 human neuroblastoma (SK-N-AS) tumor cells. Between 8-16 days, tumor growth was evident and measured.
Following sacrifice by cervical dislocation, tumor and normal tissues were immediately removed, sonicated, diluted in buffer (PBS containing 0.25% BSA, 0.05%, Tween 20, Methanol 20%, and Sodium Azide 2%). […] Tissue protein was determined using the BioRad kit (BioRad, 3300 Regatta Boulevard, Richmond, Calif. 94804).

[3] = Human toxicity, Q4D schedule (Study X); format: in vivo, human patients
Excerpt: […] It should be understood that these patients were deemed "salvage" cases almost all of whom had not responded to conventional treatment. All were otherwise thought to be beyond approved therapeutic regimens. Thus, the results and evaluation are anecdotal in nature and are not part of a controlled and statistical valid clinical trial.
[…] All were previously treated with chemotherapy and radiation for cancers of the breast (5), ovarian (2), brain (3), prostate (1), head and neck (4), bone (2), leiomyosarcoma (2), and melanoma (1).

[4] = tested on: SK-N-AS neuroblastoma tumor in nude mice; assay: Studies B and D: antitumor activity, Q4Dx3 vs Q4Hx3; format: in vivo
[5] = tested on: SK-N-AS neuroblastoma tumor in nude mice; format: in vivo
Excerpt: as §1

[6] = Toxicity in nude mice (wasting, weight loss); format: in vivo
[7] = tested on: recurrent or refractory solid tumors of childhood; assay: Study Y: pilot study of children with recurrent or refractory cancer; format: in vivo, human (children)
Procedure: A pilot study of children with recurrent or refractory cancer was initiated under our direction. Ten patients with a variety of recurrent or refractory solid tumors of childhood were treated with the same dosage and schedule as the adults described above.

SMILES: CC(=O)O[C@H]1C(=O)[C@@]2(C)[C@H]([C@H](OC(=O)c3ccccc3)[C@]3(O)C[C@H](OC(=O)[C@H](O)[C@@H](NC(=O)c4ccccc4)c4ccccc4)C(C)=C1C3(C)C)[C@]1(OC(C)=O)CO[C@@H]1C[C@@H]2O [taxol]
- maximum tolerated dose ([1]; Brown et al, six-hour infusion every twenty-one days, no premedication): 275 mg/m^2
- incidence of hypersensitivity reactions ([1]; Brown et al): dependent upon the schedule over which the taxol was administered
- hypersensitivity reactions ([1]; Kris et al, three hour infusion, 15-200 mg/m^2): severity and unpredictability of hypersensitivity reactions
- time to revertant taxol susceptibility (SK-N-AS cells; after initial exposure, concluded): four
- sensitivity to second dose of taxol (SK-N-AS cells; second dose 24 to 120 hours after first, two experiments): rebounded at the fourth day and continued to the fifth day to the original sensitivity levels
- Tumor size ([2]; day 1): 378 mm^2
- Tumor size ([2]; day 2): 480 mm^2
- Tumor size ([2]; day 3): 208 mm^2
- Tumor size ([2]; day 4): 80 mm^2
- Tumor size ([2]; day 5): 252 mm^2
- Tumor size ([2]; day 6): 154 mm^2
- toxic reaction and side effects vs twenty-four hour infusion ([3]; 45-120 mg/m^2, 60-180 minutes, Q4D×3): less toxic reaction and side effects than equivalent dosage levels over a twenty-four hour infusion
- maximum amount infused without exceeding toxicity limits ([3]; 80 minute interval): 120 mg/m^2
- Alk. Phos. toxicity: A None ([3]; Q4D 60 mg/m^2): 18
- Alk. Phos. toxicity: B Abnormal pre-III, Improved ([3]; Q4D 60 mg/m^2): 3
- Alk. Phos. toxicity: C Abnormal pre-III, Worsened or same ([3]; Q4D 60 mg/m^2): 1
- Alk. Phos. toxicity: D Normal pre-III, Worsened ([3]; Q4D 60 mg/m^2): 1
- Alk. Phos. toxicity: E Grades ([3]; Q4D 60 mg/m^2): 1
- Bilirubin toxicity: A None ([3]; Q4D 60 mg/m^2): 22
- Bilirubin toxicity: B Abnormal pre-III, Improved ([3]; Q4D 60 mg/m^2): 0
- Bilirubin toxicity: C Abnormal pre-III, Worsened or same ([3]; Q4D 60 mg/m^2): 0
- Bilirubin toxicity: D Normal pre-III, Worsened ([3]; Q4D 60 mg/m^2): 1
- Bilirubin toxicity: E Grades ([3]; Q4D 60 mg/m^2): 1
- HB toxicity: A None ([3]; Q4D 60 mg/m^2): 18
- HB toxicity: B Abnormal pre-III, Improved ([3]; Q4D 60 mg/m^2): 1
- HB toxicity: C Abnormal pre-III, Worsened or same ([3]; Q4D 60 mg/m^2): 2
- HB toxicity: D Normal pre-III, Worsened ([3]; Q4D 60 mg/m^2): 2
- HB toxicity: E Grades ([3]; Q4D 60 mg/m^2): 1,4
- PLT. toxicity: A None ([3]; Q4D 60 mg/m^2): 19
- PLT. toxicity: B Abnormal pre-III, Improved ([3]; Q4D 60 mg/m^2): 0
- PLT. toxicity: C Abnormal pre-III, Worsened or same ([3]; Q4D 60 mg/m^2): 3
- PLT. toxicity: D Normal pre-III, Worsened ([3]; Q4D 60 mg/m^2): 1
- PLT. toxicity: E Grades ([3]; Q4D 60 mg/m^2): 3
- SGOT toxicity: A None ([3]; Q4D 60 mg/m^2): 20
- SGOT toxicity: B Abnormal pre-III, Improved ([3]; Q4D 60 mg/m^2): 0
- SGOT toxicity: C Abnormal pre-III, Worsened or same ([3]; Q4D 60 mg/m^2): 0
- SGOT toxicity: D Normal pre-III, Worsened ([3]; Q4D 60 mg/m^2): 3
- WBC toxicity: A None ([3]; Q4D 60 mg/m^2): 15
- WBC toxicity: B Abnormal pre-III, Improved ([3]; Q4D 60 mg/m^2): 0
- WBC toxicity: C Abnormal pre-III, Worsened or same ([3]; Q4D 60 mg/m^2): 2
- WBC toxicity: D Normal pre-III, Worsened ([3]; Q4D 60 mg/m^2): 6
- GGT toxicity: A None ([3]; Q4D 60 mg/m^2, 11 pts): 9
- GGT toxicity: B Abnormal pre-III, Improved ([3]; Q4D 60 mg/m^2, 11 pts): 2
- GGT toxicity: C Abnormal pre-III, Worsened or same ([3]; Q4D 60 mg/m^2, 11 pts): 0
- GGT toxicity: D Normal pre-III, Worsened ([3]; Q4D 60 mg/m^2, 11 pts): 0
- Alb. toxicity: A None ([3]; Q4D 60 mg/m^2, 22 pts): 22
- Alb. toxicity: B Abnormal pre-III, Improved ([3]; Q4D 60 mg/m^2, 22 pts): 0
- Alb. toxicity: C Abnormal pre-III, Worsened or same ([3]; Q4D 60 mg/m^2, 22 pts): 0
- Alb. toxicity: D Normal pre-III, Worsened ([3]; Q4D 60 mg/m^2, 22 pts): 0
- BUN toxicity: A None ([3]; Q4D 60 mg/m^2, 22 pts): 21
- BUN toxicity: B Abnormal pre-III, Improved ([3]; Q4D 60 mg/m^2, 22 pts): 0
- BUN toxicity: C Abnormal pre-III, Worsened or same ([3]; Q4D 60 mg/m^2, 22 pts): 0
- BUN toxicity: D Normal pre-III, Worsened ([3]; Q4D 60 mg/m^2, 22 pts): 0
- Creat toxicity: A None ([3]; Q4D 60 mg/m^2, 22 pts): 21
- Creat toxicity: B Abnormal pre-III, Improved ([3]; Q4D 60 mg/m^2, 22 pts): 0
- Creat toxicity: C Abnormal pre-III, Worsened or same ([3]; Q4D 60 mg/m^2, 22 pts): 0
- Creat toxicity: D Normal pre-III, Worsened ([3]; Q4D 60 mg/m^2, 22 pts): 0
- LDH toxicity: A None ([3]; Q4D 60 mg/m^2, 22 pts): 18
- LDH toxicity: B Abnormal pre-III, Improved ([3]; Q4D 60 mg/m^2, 22 pts): 3
- LDH toxicity: C Abnormal pre-III, Worsened or same ([3]; Q4D 60 mg/m^2, 22 pts): 0
- LDH toxicity: D Normal pre-III, Worsened ([3]; Q4D 60 mg/m^2, 22 pts): 0
- T P toxicity: A None ([3]; Q4D 60 mg/m^2, 22 pts): 21
- T P toxicity: B Abnormal pre-III, Improved ([3]; Q4D 60 mg/m^2, 22 pts): 0
- T P toxicity: C Abnormal pre-III, Worsened or same ([3]; Q4D 60 mg/m^2, 22 pts): 0
- T P toxicity: D Normal pre-III, Worsened ([3]; Q4D 60 mg/m^2, 22 pts): 0
- toxicity or hypersensitivity vs currently recommended dosages ([3]; Q4D regimen, also without pretreatment): reduced toxicity or hypersensitivity reactions
- CMAX taxol-associated toxicity ([3]; Q4D schedule): no clinically significant CMAX taxol-associated toxicity
- abnormalities on UA., CA^++, Phos, CO2, Cl, Na^+, K^+, Mg^+ ([3]; in vivo): No abnormalities detected
- alopecia ([3]; in vivo): 2/4
- diploplia for several hours each day following treatment ([3]; in vivo): One
- malaise and fatigue ([3]; in vivo): Four
- toxicity of infusion with separated treatment days ([3]; treatment days separated by 3-5 days): toxicity of the taxol infusion was diminished
- antitumor activity, Q4D×3 vs Q4H×3 ([4]; 15 mg/kg IP): greater antitumor activity than the Q4H×3 schedule
- antitumor activity, Q4D vs QD schedule ([4]; mouse, in vivo): better in the Q4D than in the QD schedule
- concentration in normal tissues, treated vs controls (10 mg/kg IP Q4D×3, then single 20 mg/kg IP): consistently greater than in nontreated controls; also recorded: consistently greater than in Group A
- concentration in tumor vs liver, kidney or lung (after single 20 mg/kg IP): usually greater in tumor tissue compared to liver, kidney or lung
- distribution in tumor tissue compared to liver, kidney or lung (mouse, in vivo): four to thirty
- Taxol, tumor (treated (Cages II, III): 10 mg/kg Q4D×3, then 20 mg/kg IP 24 h prior, individual mice): 195.24 ng/mg Protein
- antitumor activity in words ([5]; 10 mg/kg IP Q4D×3): antitumor activity ranging from tumor growth inhibition to tumor lysis
- variance in response to drug therapy ([5]; 10 mg/kg IP Q4D×3): ranging from tumor lysis to slowed growth
- mice with delayed tumor growth ([5]; Study C, 10 mg/kg IP Q4D×3): 4/5
- mice with tumor regression ([5]; Study C, 10 mg/kg IP Q4D×3): 1/5
- tumor sizes or weight gain, day 1 vs day 14 ([5]; Treated Group B, 10 mg/kg IP Q4D×3): no significant difference in tumor sizes or weight gain
- weight gain between day 1 and day 14 ([5]; mouse, in vivo): no significant weight gain
- Wt, Day #1, MEAN ([5]; mouse, in vivo, ip, 10 mg/kg): 26.6
- Wt, Day #14, MEAN ([5]; mouse, in vivo, ip, 10 mg/kg): 28.8
- Tumor area, Day #1, MEAN ([5]; treated, 10 mg/kg IP Q4D×3, S.E. ±5.1): 60.3
- Tumor area, Day #5, MEAN ([5]; treated, 10 mg/kg IP Q4D×3, S.E. ±21.5): 93
- Tumor area, Day #9, MEAN ([5]; treated, 10 mg/kg IP Q4D×3, S.E. ±23.6): 105.6
- Tumor area, Day #14, MEAN ([5]; treated, 10 mg/kg IP Q4D×3, S.E. ±54.8): 142
- toxicity of dosage ([6]; 10 mg/kg IP Q4D×3, neuroblastoma tumor bearing nude mice): non-toxic dosage
- toxicity of schedule ([6]; 15 mg/kg every 4 hours×3 in one day): equally non-toxic
- toxicity of schedule ([6]; 15 mg/kg every 4 days×3): equally non-toxic
- indications of toxicity (wasting or weight loss) ([6]; Study B, 15 mg/kg IP Q4D×3): no indications of toxicity
- tumor response on CT scan ([7]; one patient, pelvic embryonal rhabdomyosarcoma): shrinkage of their tumor
- decrease in tumor volume ([7]; one patient, recurrent glioblastoma multiforme, after 9 treatments): 30%
- progression ([7]; rhabdomyosarcoma patient, shortly following the 9th treatment): developed a brain metastasis
